# According to US9163049B2, “Medicament comprising a reducing alkyl-sugar monomer for the treatment of inflammatory disorders” (PIERRE FABRE DERMO-COSMETIQUE, priority 2003, dated 2015):
# Experiments:
# [1] = tested on: keratinocytes; assay: Toxicity test: viability of keratinocytes; assay type: cell-based; details: for % viability: compared to control 100%
# Excerpt: (§1) MTT [3-(4,5-[…])-2,5-diphenyl tetrazolium bromide] Reduction Technique (Sold by Sigma).
# (§2) This technique corresponds to a colorimetric test allowing quantification of living, metabolically active cells in a non-radioactive manner. MTT is a cationic molecule which is bound to the membranes of mitochondria in a potential-dependant fashion. On the level of the mitochondria, MTT will be reduced to formazan blue by mitochondrial dehydrogenase. The living cells are thus colored blue, in contrast with the dead cells which remain transparent. The measure of viability is then carried out by measurement of the optical density using an automatic reader.
# XTT Tetrazolium Salt Reduction Technique.
# This is a technique allowing quantification of cellular proliferation and of the number of living (metabolically active) cells, without the incorporation of radioactive isotopes. XTT, yellow in color, is a cationic molecule which is bound to the membranes of mitochondria in a potential-dependant fashion, as does MTT.
# On the level of the mitochondria, XTT will be reduced to formazan (orange) by mitochondrial tetrazolium reductase. […] Indeed, the reduction product is soluble within the cell. The method is thus faster. Living cells, in the absence and presence of a treatment become colored, in contrast with dead cells which remain colorless. The level of formazan product is detected with the spectrophotometer at a wavelength of 450 nm and is directly proportional to the number of metabolically active cells.
# Keratinocytes were isolated and placed in culture from human skin biopsies arising from anonymous donors following a plastic surgery procedure. Measurements of optical density (absorbance) of the 4 wells treated with the same product concentration were averaged. This average was compared with the average of the measurements obtained for the 4 control wells (Student's t-test comparison of means significant difference at 95% if p<0.05 and 99% if p<0.01).
# The viabilities of the treated cells are expressed as a percentage compared to the control (untreated cells) of 100% (OD treated/OD control×100).
# [2] = tested on: endothelial cells (appendix, brain microvascular, mesenteric lymphatic ganglia, peripheral lymphatic ganglia, skin microvascular); assay: Cytotoxicity test (MTT) on endothelial cell lines; assay type: cell-based
# Excerpt: as §1, §2
# Endothelial cells were placed in culture, immortalized and stabilized in their phenotype. The cell lines studied were appendix endothelial cells, brain microvascular endothelial cells, mesenteric lymphatic ganglia endothelial cells, peripheral lymphatic ganglia endothelial cells and skin microvascular endothelial cells.
# The cytotoxicity test was carried out by means of a biochemical test on the transformation of a tetrazolium salt, MTT. […] Viability is indeed always greater than 85%, and this is true for all of the cells lines studied.
# [3] = tested on: PGE2 released by the NHK stimulated by PMA; assay: Assay of the PGE2 released by the NHK stimulated by PMA; assay type: cell-based, human; details: for Percentage of inhibition of the release of PGE2: NHK + PMA 1 ng/ml, 24 hours
# Procedure: Assay of the PGE2 released by the NHK stimulated by PMA.
# Alkyl-rhamnosides were evaluated as an inhibitor of the release of PGE2 in cellular supernatants. These products were placed in the presence of the NHK at the same time as the PMA at 1 ng/ml. Each condition tested was evaluated for stimulation on 4 wells of NHK.
# The results summarized in Table 5 below represent the mean PGE2 concentration values (pg/ml), after 24 hours of treatment, given in each of the cellular supernatants, stimulated or not, and reported in a quantity of cells expressed in μg.
# [4] = tested on: HSkMEC; assay: Adhesion of lymphocytes on non-activated endothelial cells HSkMEC; assay type: cell-based; details: for adhesion between lymphocytes and endothelial cells, Medium: HSkMEC, Medium (no TNF), control = 1.000
# Procedure: (§3) The influence of alkyl-rhamnosides on adhesion between lymphocytes and […] endothelial cells, in particular the line of endothelial cells arising from the skin (HSkMEC), was evaluated. These cells were placed in the presence of a strong activator, TNF-α.
# (§4) Adhesion is carried out in vitro under static conditions. The endothelial cells were cultured in wells in order to obtain a monolayer. The cells were pretreated for 5 hours in the presence or absence of alkyl-rhamnosides. As dodecyl-rhamnoside required a content of 0.1% by volume to be soluble in the culture media, a control containing 0.1% glycerol was also analyzed.
# (§5) The suspension of labeled lymphocytes was at a concentration making it possible to obtain a ratio of 5 lymphocytes per endothelial cell. Adhesion was carried out for 30 minutes at ambient temperature. The label binds irreversibly to the lipids of the plasma membrane of the cells without affecting the biological properties of the membrane or cellular viability.
# (§6) The adhesion of the lymphocytes on the endothelial cells was quantified by flow cytometry.
# [5] = tested on: HPLNEC.B3; assay: Adhesion of lymphocytes on non-activated endothelial cells HPLNEC.B3; assay type: cell-based
# Procedure: as §4, §5, §6
# [6] = tested on: HMLNEC; assay: Adhesion of lymphocytes on non-activated endothelial cells HMLNEC; assay type: cell-based
# Procedure: as §4, §5, §6
# [7] = tested on: HAPEC; assay: Adhesion of lymphocytes on non-activated endothelial cells HAPEC; assay type: cell-based
# Procedure: as §4, §5, §6
# [8] = tested on: HBrMEC; assay: Adhesion of lymphocytes on non-activated endothelial cells HBrMEC; assay type: cell-based
# Procedure: as §4, §5, §6
# [9] = tested on: HSkMEC activated with TNF-α; assay: Adhesion between lymphocytes and TNF-α activated endothelial cells (HSkMEC); assay type: cell-based; details: for Control/TNF ratio / adhesion between lymphocytes and endothelial cells, TNF: HSkMEC; for adhesion between lymphocytes and endothelial cells, TNF: control in medium = 1.000
# Procedure: as §3, §4, §5, §6
# The results of adhesion between lymphocytes and activated endothelial cells, summarized in Table 5 below, arise from groups of three adhesion tests.
# [10] = tested on: proliferation of lymphocytes in auricular lymphatic ganglia; details: in vivo
# Excerpt: (§7) This test determines the sensitizing capacity of the test substance by measuring the proliferation of lymphocytes in auricular lymphatic ganglia. The proliferation of lymphocytes will be measured by determining the incorporation of tritiated methyl thymidine.
# [11] = tested on: proliferation of lymphocytes in auricular lymphatic ganglia; assay: Sensitizing capacity by the LLNA method (local lymph node assay)
# Excerpt: as §7
# [12] = tested on: reconstituted epidermis; assay: Cutaneous irritant potential on reconstituted epidermis; assay type: cell-based; details: Rh-C5 concentration 30%, Triton 4%
# Excerpt: The evaluation of cutaneous irritant potential on reconstituted epidermis is an alternative to animal experimentation. The principle is based on the evaluation of the irritant potential of the product tested by: • the study of cytotoxicity by quantification of the release of lactate dehydrogenase (LDH) and by reduction of MTT to […], • the study of inflammation markers by quantification of the release of interleukins and IL8.
compound,measurement,setting,value
"CCCCCOC1O[C@@H](C)[C@H](O)[C@@H](O)[C@H]1O (stereo partly shown) [Rh-C5, pentyl-rhamnoside]",concentrations at which cytotoxicity is exhibited,[1],greater than 2 mg/ml
same,% viability,[1]; 0.1 mg/ml,94%
same,% viability,[1]; 1 mg/ml,74%
same,% viability,[1]; 2 mg/ml,53%
same,% viability,[1]; 5 mg/ml,40%
same,Viability,[2]; all of the cells lines studied,greater than 85%
same,toxicity,[2]; endothelial cell lines,no toxicity
same,Percentage of inhibition of the release of PGE2,[3]; 0.02 mg/ml,29%
same,Percentage of inhibition of the release of PGE2,[3]; 0.05 mg/ml,61%
same,Percentage of inhibition of the release of PGE2,[3]; 0.1 mg/ml,64%
same,Percentage of inhibition of the release of PGE2,[3]; 1 mg/ml,89%
same,inhibiting effect on the adhesion of lymphocytes compared to rhamnose,"[4]; 1.1 mM, non-activated HSkMEC",37.3%
same,"adhesion between lymphocytes and endothelial cells, Medium",[4],1.900
same,increase in adhesion of lymphocytes,[5]; 1.1 mM,37.9%
same,increase in adhesion of lymphocytes compared to rhamnose,[6]; 1.1 mM,96.7%
same,effect on adhesion of lymphocytes,[7]; 1.1 mM,no effect or a very slight effect
same,effect on adhesion of lymphocytes,[8]; 1.1 mM,no effect or a very slight effect
same,Control/TNF ratio,[9],1.6
same,"adhesion between lymphocytes and endothelial cells, TNF",[9],3.100
same,Conclusion (sensitizing capacity),[10],Not sensitizing
same,sensitizing capacity,[10],not sensitizing
same,DPM/Ganglion,[11]; Concentration 1: 3%,1240.2 DPM/Ganglion
same,RATIO,[11]; Concentration 1: 3%,0.7
same,DPM/Ganglion,[11]; Concentration 2: 15%,1041.1 DPM/Ganglion
same,RATIO,[11]; Concentration 2: 15%,0.6
same,DPM/Ganglion,[11]; Concentration 3: 30%,797.3 DPM/Ganglion
same,RATIO,[11]; Concentration 3: 30%,0.5
"CCCCCCCCCCCOC1O[C@@H](C)[C@H](O)[C@@H](O)[C@H]1O (stereo partly shown) [Rh-C11, undecyl-rhamnoside]",% viability,[1]; 10 μg/ml,81%
same,% viability,[1]; 100 μg/ml,17%
same,% viability,[1]; 250 μg/ml,11%
same,% viability,[1]; 500 μg/ml,30%
same,Percentage of inhibition of the release of PGE2,[3]; 0.01 mg/ml,28%
same,Percentage of inhibition of the release of PGE2,[3]; 0.02 mg/ml,28%
same,activity (inhibition of PGE2 release),[3]; in the range of 20 μg/ml,activity comparable to pentyl-rhamnoside
"C[C@H](O)[C@H](O)[C@@H](O)[C@@H](O)C=O [Rhamnose, rhamnose, reference compound]",% viability,[1]; 0.001 mg/ml,95%
same,% viability,[1]; 0.01 mg/ml,100%
same,% viability,[1]; 0.1 mg/ml,98%
same,% viability,[1]; 1 mg/ml,104%
same,cytotoxicity,[1]; even for the highest concentrations,does not exhibit cytotoxicity
same,"adhesion between lymphocytes and endothelial cells, Medium",[4],1.630
same,Control/TNF ratio,[9],1.5
same,"adhesion between lymphocytes and endothelial cells, TNF",[9],2.450
CCCCCCCCCCCCOC1O[C@@H](C)[C@H](O)[C@@H](O)[C@H]1O (stereo partly shown) [dodecyl-rhamnoside],decrease of the adhesion of lymphocytes,"[4]; 1.5 mM, non-activated HSkMEC",34.2%
same,"adhesion between lymphocytes and endothelial cells, Medium",[4],3.200
same,effect on adhesion of lymphocytes,[5]; 1.5 mM,no effect
same,effect on adhesion of lymphocytes,[6]; 1.5 mM,no effect
same,increase in adhesion of lymphocytes,[7]; 1.5 mM,44.1%
same,effect on adhesion of lymphocytes,[8]; 1.5 mM,no effect
same,inhibition of adhesion,"[9]; 1.5 μM, endothelial cells",63%
same,Control/TNF ratio,[9],0.59
same,"adhesion between lymphocytes and endothelial cells, TNF",[9],1.900
Triton [reference compound],IL1α ratio,[12]; 24 hours of application,36.0
same,IL8 ratio,[12]; 24 hours of application,3.7
same,LDH ratio,[12]; 24 hours of application,124.7
same,MTT % viability,[12]; 24 hours of application,3.0%
same,IL1α ratio,[12]; 72 hours of application,7.2
same,IL8 ratio,[12]; 72 hours of application,0.9
same,LDH ratio,[12]; 72 hours of application,77.3
same,MTT % viability,[12]; 72 hours of application,1.5%
same,Classification (cutaneous irritant potential),[12],irritant
octadecyl-rhamnose [Rh-C18],Percentage of inhibition of the release of PGE2,[3]; 0.02 mg/ml,2%
